pEC50, pIC50: −log10 of the molar value. Some results are limits rather than exact numbers.

Assay [1] has as its system lymphoma cell line U-2932. Kind of assay: Standard 6-day growth-death assay, U-2932. The assay is classed as cell-based. The following applies: single agent or fixed 1:1 combination. As for the experimental part: The majority cell lines were obtained from GSK BioCat group, American Type Culture Collection (ATCC), or the Deutsche Sammlung von Mikroorganismen and Zellbulturen (DSMZ). All cell lines were maintained in growth medium in T75 cm^2 flasks, incubated at 37° C. with 5% CO2 and split every 3 to 4 days. Growth media conditions and cell line information are detailed in Table 1. Cells were counted using the Vi-Cell Analyzer (Beckman Coulter ViCell) to obtain viable cell counts.
Optimal cell seeding density was determined for all cell lines by monitoring proliferation over a range of seeding densities in 384-well format and identifying the seeding density at which cells grew logarithmically throughout six days. 50 uL of cells per well were plated in 384-well plates at the optimal seeding density in preferred supplemented culture media. Three plates were prepared per cell line and incubated overnight at 37° C. in 5% CO2.
In these studies, lymphoma cell lines were treated with PRMT5 inhibitor, compound A and BCL-2 targeted inhibitor, ABT-199 single agent or in combination using a fixed 1:1 ratio of each inhibitor over a 20-point titration. For compound A single and fixed 1:1 ratio combination with ABT-199 cell proliferation assay, cells were treated in duplicate with a 20-point, two-fold dilution series of Compound A, ABT-199 (≥14 μM top dose) single or combo treatment, and ≤0.15% DMSO final concentration. Plates were incubated for six days at the conditions described above. Cell growth was measured using CellTiter-Glo (Promega) and luminescence signal was detected with a BioTek Synergy Neo microplate reader. A plate of untreated cells was read at the time of compound/biologic addition to determine the T0 value representing the starting number of cells. Data were fit with a four-parameter equation to generate a concentration response curve using Assay Client software.
Results were background corrected by subtraction of values from wells containing no cells, expressed as a percentage of the T0 value (value at time=0), and plotted against compound concentration. The T0 value was normalized to 100% and represents the number of cells present at the time of compound addition. The cellular response was determined for each compound using a 4- or 6-parameter curve fit of cell viability against concentration using Assay Client software. Growth IC50 (gIC50) values correspond to the concentration intersecting the mid-point of the growth window (between DMSO and T0 values). Growth IC100 (gIC100) values correspond to the concentration at which 100% growth inhibition is achieved, based on the growth window. The Ymin−T0 value, a measure of net population cell growth or death, is calculated by subtracting the T0 value (100%) from the Ymin value (%) that is determined from the fit of the concentration response curve. Death EC50 (dEC50) values correspond to the concentration at which 50% net cell death is observed.
Individual curves were quality checked for three criteria: outlier data points, cell growth (population doubling ≥1.5), and proper curve fitting. […] Individual curves were QC checked for outlier data points, cell growth (population doubling ≥1.5), and proper curve fitting. Obvious outlier data points were omitted only as needed to ensure proper curve fit.
For fixed ratio screening, combination activity was assessed by the fold change in gIC50 compared to the 2 single agent curves by dividing the compound ratio as necessary. Combinations showing >3-fold and >5-fold change from single agent are described as below: • Fold changes ≥5 are considered to represent strong synergy. • Fold changes between 3.0 and 4.9 are considered to represent weak synergy. • Fold changes <3 are considered to represent no synergy.

Another assay deals with lymphoma cell line DB. Kind of assay: Serial dilutions: fixed ABT-199 concentration with Compound A titration, six-day cell proliferation. The assay is classed as cell-based. The procedure:
Serial dilutions were performed for the combination to ascertain the change in gIC50, gIC100 and dEC50 when the inhibitors are used together in a PRMT5 inhibitor cell proliferation. A first compound plate was prepared where PRMT5 inhibitor, Compound A, was prepared with a 20-point, two-fold dilution series of compound A from column 1 to 20. A second compound plate was prepared using the BCL-2 inhibitor ABT-199. ABT-199 was titrated in a 16-point 2-fold dilution series from row A to Q. A third plate was then created by added equal volume of 12 ul (ABT-199) from each well in the second plate into the corresponding well in the first plate. The third plate comprised rows from A to Q, each row comprising a fixed concentration of ABT-199. Columns 1-20 comprised varying concentrations of compound A from the 20-point dilution. Plates were incubated for six days at the conditions described above. Lymphoma cell line DB was treated with the solution in each of the wells. Cell growth was measured using CellTiter-Glo (Promega) and luminescence signal was detected with a BioTek Synergy Neo microplate reader. A plate of untreated cells was read at the time of compound/biologic addition to determine the T0 value representing the starting number of cells. Data were fit with a four-parameter equation to generate a concentration response curve for each row using Assay Client software. A comparison was made across each row in the third plate to determine, when keeping a fixed concentration of ABT-199, what concentration of compound A is needed to reach the gIC50, gIC100 or dEC50 respectively and the fold change compared to treating the same cell with compound A alone.
Tables 4a-c show the results of the above serial dilution experiments wherein ‘fold change’ is the difference between the amount of compound A needed to achieve gIC50, gIC100 or dEC50 respectively, compared to the amount of compound A needed to achieve gIC50, gIC100 or dEC50 respectively when compound A is given as a single agent.

Setting [2] is: fixed ABT-199 with compound A titration, vs compound A alone.

With `CC1(C)CCC(CN2CCN(c3ccc(C(=O)NS(=O)(=O)c4ccc(NCC5CCOCC5)c([N+](=O)[O-])c4)c(Oc4cnc5[nH]ccc5c4)c3)CC2)=C(c2ccc(Cl)cc2)C1` [ABT-199, venetoclax, reference compound], the pEC50 in assay [1] (Homo sapiens, U2932, 144 h, average of n=2, read-out: dEC50) is 5.51; in the assay on lymphoma cell line DB (144 h, single agent, six days, read-out: dEC50), less than 5.13. Besides, the pIC50 in assay [1] (Homo sapiens, U2932, 144 h, average of n=2, read-out: gIC50) is 6.95; with lymphoma cell line DB (144 h, single agent, six days, read-out: gIC50), 5.19. Further, the Ymin-T0 in assay [1] (average of n=2) is on record as −92%. For the same compound, the gIC100 in assay [1] (average of n=2) is 1366 nM; with lymphoma cell line DB (single agent, six days) it was 7.331 µM. In the assay on lymphoma cell line DB (fixed ABT-199 with compound A titration), the “concentration of ABT-199 at which ≥3 fold change was achieved in dEC50” value was 1833 nM. Also, in the assay with lymphoma cell line DB (setting [2]), the “concentration of ABT-199 at which ≥3 fold change was achieved in gIC50” value stood at 115 nM. Besides, in the assay with lymphoma cell line DB (setting [2]), the “concentration of ABT-199 at which ≥3 fold change was achieved in gIC100” value stood at 458 nM.

Source of the values: US20210386738A1, “COMBINATION OF PRMT5 INHIBITORS AND BCL-2 INHIBITORS” (GLAXOSMITHKLINE INTELLECTUAL PROPERTY DEVELOPMENT LIMITED, priority 2018, published 2021).
